In publication PMC12749748, “Chemically-induced degradation of the endoplasmic-reticulum stress sensor IRE1 by a VHL-recruiting chimera” (Nature Communications, 2025):
“Also recorded” adds a separate entry of the source.

Key:
Type in all cases: cell-based
IRE1 H579A:VHL = target: T1, IRE1 H579A:VHL (Homo sapiens, UniProt O75460+P40337, H579A); test: NanoBRET IRE1:VHL interaction, IRE1 H579A, HEK293T cells
T1 construct: N2731; host or cells: HEK293T
Description: (§1) 8 × 10^5 293T cells per well were seeded in 6-well plates (Costar, #3516) and incubated at 37 °C, 5% CO2 for 6 h. A mixture of 0.2 µg ERN1 (IRE1)-NanoLuc Fusion Vector (Promega, NV1321), 2 µg HaloTag-VHL Fusion Vector (Promega, N2731), 6 µl FuGENE HD Transfection Reagent (Promega, E2311), and 100 µL Opti-MEM I reduced serum medium (Gibco, #31985062) per well was incubated at room temperature for 20 min before adding to cells. For expression of IRE1 mutants, site-directed mutagenesis was performed using the ERN1-NanoLuc Fusion Vector as the DNA template, and the transfection mixture was prepared in the same way as WT IRE1. After 18 h, cells from 6-well plates were trypsinized, resuspended in Opti-MEM I reduced serum medium, and reseeded into 96-well plates (Costar, #3917), with or without the addition of HaloTag NanoBRET 618 Ligand (Promega, G9801). After 18 h of incubation, a titration of G6374 (dilutions made in Opti-MEM I reduced serum medium) was added to the cells. After 2 h of G6374 treatment, NanoBRET Nano-Glo Substrate (Promega, N1571) was added to cells. The 96-well plates were imaged by GloMax Discover Microplate Reader (Promega, GM3000) with the default “BRET: NanoBRET 618” protocol (Donor: 450 BP; Acceptor: 600 LP; Integration: 0.3 s). Data analysis was performed according to the user manual.

IRE1 E621A, E836A = target: T2, IRE1 E621A, E836A (Homo sapiens, UniProt O75460+P40337, E621A/E836A); test: NanoLuc signal IRE1 depletion, IRE1 E621A, E836A, HEK293T cells; conditions: E836A double mutant
T2 construct: N2731; host or cells: HEK293T
T2 sequence (O75460 19-977 E621A/E836A): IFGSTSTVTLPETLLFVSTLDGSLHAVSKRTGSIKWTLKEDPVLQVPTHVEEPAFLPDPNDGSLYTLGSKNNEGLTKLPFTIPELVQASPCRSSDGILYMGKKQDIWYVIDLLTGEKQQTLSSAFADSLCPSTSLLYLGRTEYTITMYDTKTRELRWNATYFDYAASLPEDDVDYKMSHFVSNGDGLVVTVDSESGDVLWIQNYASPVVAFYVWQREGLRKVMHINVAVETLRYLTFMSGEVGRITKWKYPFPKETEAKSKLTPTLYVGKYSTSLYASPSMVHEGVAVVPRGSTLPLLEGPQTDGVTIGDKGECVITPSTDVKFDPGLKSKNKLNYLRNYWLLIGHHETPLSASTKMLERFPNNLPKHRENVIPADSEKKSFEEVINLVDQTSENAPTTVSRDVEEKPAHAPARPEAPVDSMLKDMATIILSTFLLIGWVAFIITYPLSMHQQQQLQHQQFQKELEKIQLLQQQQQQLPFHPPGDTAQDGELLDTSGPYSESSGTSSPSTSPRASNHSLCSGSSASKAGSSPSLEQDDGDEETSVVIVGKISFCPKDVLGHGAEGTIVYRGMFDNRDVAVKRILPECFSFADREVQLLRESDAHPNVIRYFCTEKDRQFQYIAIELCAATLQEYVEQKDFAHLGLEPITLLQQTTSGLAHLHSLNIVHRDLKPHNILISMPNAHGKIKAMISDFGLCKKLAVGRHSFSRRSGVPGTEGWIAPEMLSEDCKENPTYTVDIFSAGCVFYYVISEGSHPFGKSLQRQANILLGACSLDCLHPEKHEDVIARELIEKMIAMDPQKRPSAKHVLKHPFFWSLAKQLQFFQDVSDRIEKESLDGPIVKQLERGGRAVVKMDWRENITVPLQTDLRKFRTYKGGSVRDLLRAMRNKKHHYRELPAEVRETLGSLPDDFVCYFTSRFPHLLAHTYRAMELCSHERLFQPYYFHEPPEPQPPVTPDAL
T2 sequence (P40337 whole entry): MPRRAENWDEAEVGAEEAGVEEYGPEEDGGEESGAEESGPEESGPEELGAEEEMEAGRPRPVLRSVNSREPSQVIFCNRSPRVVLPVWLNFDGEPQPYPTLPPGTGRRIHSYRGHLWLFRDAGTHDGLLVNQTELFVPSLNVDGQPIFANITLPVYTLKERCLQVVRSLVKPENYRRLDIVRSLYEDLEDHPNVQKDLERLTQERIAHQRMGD
T2 sequence (Q15369 whole entry partner): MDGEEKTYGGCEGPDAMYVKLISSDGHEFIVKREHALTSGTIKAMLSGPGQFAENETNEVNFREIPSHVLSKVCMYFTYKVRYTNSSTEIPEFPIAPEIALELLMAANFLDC
T2 sequence (Q15370 whole entry partner): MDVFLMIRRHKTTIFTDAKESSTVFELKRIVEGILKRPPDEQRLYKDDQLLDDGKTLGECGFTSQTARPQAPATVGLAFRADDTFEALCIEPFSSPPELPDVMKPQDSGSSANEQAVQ
T2 sequence (Q13617 whole entry partner): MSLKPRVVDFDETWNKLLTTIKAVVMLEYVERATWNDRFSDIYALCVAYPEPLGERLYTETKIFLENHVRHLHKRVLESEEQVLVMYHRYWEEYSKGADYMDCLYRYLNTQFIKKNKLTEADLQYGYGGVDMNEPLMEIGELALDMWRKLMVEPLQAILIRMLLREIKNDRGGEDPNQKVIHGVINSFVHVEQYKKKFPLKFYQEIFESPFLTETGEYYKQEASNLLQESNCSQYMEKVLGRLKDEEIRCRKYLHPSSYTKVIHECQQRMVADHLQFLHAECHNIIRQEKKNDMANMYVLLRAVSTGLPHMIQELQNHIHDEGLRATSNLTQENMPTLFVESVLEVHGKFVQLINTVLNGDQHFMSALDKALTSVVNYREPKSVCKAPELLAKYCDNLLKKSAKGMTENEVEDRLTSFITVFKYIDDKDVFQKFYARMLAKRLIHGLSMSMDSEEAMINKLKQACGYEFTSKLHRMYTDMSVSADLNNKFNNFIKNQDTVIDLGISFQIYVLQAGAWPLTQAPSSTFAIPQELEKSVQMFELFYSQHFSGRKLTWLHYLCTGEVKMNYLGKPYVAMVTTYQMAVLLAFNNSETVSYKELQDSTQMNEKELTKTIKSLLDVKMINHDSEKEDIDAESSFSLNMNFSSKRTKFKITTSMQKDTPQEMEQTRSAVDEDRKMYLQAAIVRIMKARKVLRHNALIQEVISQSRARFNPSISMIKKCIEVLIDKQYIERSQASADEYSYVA
T2 sequence (P62877 whole entry partner): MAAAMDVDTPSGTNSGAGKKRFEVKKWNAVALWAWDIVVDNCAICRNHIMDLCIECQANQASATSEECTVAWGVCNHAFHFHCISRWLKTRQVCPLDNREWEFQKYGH
Description: as §1

IRE1:VHL = IRE1:VHL (Homo sapiens, UniProt O75460+P40337); test: NanoBRET IRE1:VHL interaction, WT IRE1, HEK293T cells; set-up: N2731 (HaloTag-VHL); host or cells: HEK293T
IRE1:VHL, sequence (O75460 19-977): as the sequence (O75460 19-977 E621A/E836A) above, with A603E, A818E counted along it
IRE1:VHL, sequence (P40337 whole entry, the tested form may be a part): as the sequence (P40337 whole entry) above
IRE1:VHL, sequence (Q15369 whole entry partner, the tested form may be a part): as the sequence (Q15369 whole entry partner) above
IRE1:VHL, sequence (Q15370 whole entry partner, the tested form may be a part): as the sequence (Q15370 whole entry partner) above
IRE1:VHL, sequence (Q13617 whole entry partner, the tested form may be a part): as the sequence (Q13617 whole entry partner) above
IRE1:VHL, sequence (P62877 whole entry partner, the tested form may be a part): as the sequence (P62877 whole entry partner) above
Description: 8 × 10^5 293T cells per well were seeded in 6-well plates (Costar, #3516) and incubated at 37 °C, 5% CO2 for 6 h. A mixture of 0.2 µg ERN1 (IRE1)-NanoLuc Fusion Vector (Promega, NV1321), 2 µg HaloTag-VHL Fusion Vector (Promega, N2731), 6 µl FuGENE HD Transfection Reagent (Promega, E2311), and 100 µL Opti-MEM I reduced serum medium (Gibco, #31985062) per well was incubated at room temperature for 20 min before adding to cells. For expression of IRE1 mutants, site-directed mutagenesis was performed using the ERN1-NanoLuc Fusion Vector as the DNA template, and the transfection mixture was prepared in the same way as WT IRE1. After 18 h, cells from 6-well plates were trypsinized, resuspended in Opti-MEM I reduced serum medium, and reseeded into 96-well plates (Costar, #3917), with or without the addition of HaloTag NanoBRET 618 Ligand (Promega, G9801). […] After 2 h of G6374 treatment, NanoBRET Nano-Glo Substrate (Promega, N1571) was added to cells. The 96-well plates were imaged by GloMax Discover Microplate Reader (Promega, GM3000) with the default “BRET: NanoBRET 618” protocol (Donor: 450 BP; Acceptor: 600 LP; Integration: 0.3 s). Data analysis was performed according to the user manual.

U2OS cells = test: Incucyte cell confluency, U2OS cells; conditions: U2OS shIRE1 cells, titration
Description: (§2) For non-adherent AMO1, KMS27, and OPM2 cells, cells were plated at 5000 cells/well in ultra-low attachment (ULA) 96-well plates (Costar, #7007) and centrifuged at 600 × g for 5 min for spheroid formation. For adherent U2OS and Colo201 cells, 2000 cells/well were seeded in a clear flat-bottom 96-well plate (Costar, #3595). Treatments were added at the time of cell seeding, and cells were cultured in complete RPMI media to a final volume of 200 µL/well. Cultures were maintained at 37 °C throughout the duration of the experiment. Cell confluency was tracked using the Incucyte live-cell imaging system (Sartorius S3). Picture frames were captured every 4 h with a 4× objective, and cell confluency (%) from the total well area as a function of time was calculated using the Incucyte software (version 2023 A Rev2).

[1] = tested on: IRE1 L577D, V586D, A597D, L644D, L695D, E651A; test: NanoBRET with IRE1 point mutants disrupting IRE1:G6374 interactions; conditions: each of L577D, HEK293T
Description: as §1

KMS27 cells = test: Incucyte cell confluency, KMS27 cells; conditions: KMS27 shIRE1 cells, titration
Description: as §2

IRE1 = IRE1 (Homo sapiens, UniProt O75460); test: Immunoblot of endogenous IRE1 depletion in AMO1 cells; set-up: Immunoblot (IB) analysis of endogenous IRE1 depletion in AMO1 cells; endogenous in cells; host or cells: AMO1
IRE1, sequence (O75460 19-977): as the sequence (O75460 19-977 E621A/E836A) above, with A603E, A818E counted along it
Description: Cells were lysed in buffer containing 20 mM HEPES 7.2, 150 mM NaCl, and 1% Triton X-100, supplemented with fresh protease and phosphatase inhibitors (Invitrogen, #78440), cleared by centrifugation at 12,000 × g for 10 min, and analyzed by BCA protein assay (Thermo Fisher Scientific, #23227). Equal protein amounts were loaded, separated by SDS-PAGE, electrotransferred to nitrocellulose membranes using the iBLOT2 system (Invitrogen), and blocked in 5% nonfat milk solution for 60 min. Membranes were probed with primary antibodies at 1:1000 dilution in 5% milk at 4 °C overnight. Signal was detected using appropriate horseradish peroxidase (HRP)-conjugated secondary antibodies at 1:10,000 in 5% milk at room temperature for 1–2 h. Bands were visualized by the Azure 600 western blot imaging system (Azure Biosystems). For in vitro ubiquitination assays performed with Me-Ub, bands were visualized by the Odyssey CLx Imager (LI‑COR) after incubating the blots with the IRDye 800CW (LI-COR) secondary antibodies at 1:10,000 in Intercept Blocking Buffer (LI-COR) at room temperature for 1–2 h.

[2] = AMO1 cells, 17 h, immunoblot quantification, n = 4, mean ± SEM

T1 sequence (O75460 19-977 H579A): as the sequence (O75460 19-977 E621A/E836A) above, with H561A, A603E, A818E counted along it
T1 sequence (Q13617 whole entry, further chain): as the sequence (Q13617 whole entry partner) above
T1 sequence (Q15370 whole entry, further chain): as the sequence (Q15370 whole entry partner) above
T1 sequence (P62877 whole entry, further chain): as the sequence (P62877 whole entry partner) above
T1 sequence (P40337 whole entry): as the sequence (P40337 whole entry) above
T1 sequence (Q15369 whole entry, further chain): as the sequence (Q15369 whole entry partner) above

## Cc1ncsc1-c1ccc(CNC(=O)[C@@H]2C[C@@H](O)CN2C(=O)[C@@H](NC(=O)CCCCN2CCN([C@H]3CC[C@H](Nc4ncc5ccc(=O)n(C(C)C)c5n4)CC3)CC2)C(C)(C)C)cc1 [G6374]
IRE1 H579A:VHL
  EC50: 450 ± 60 nM
IRE1 E621A, E836A
  DC50: 110 ± 30 nM
IRE1 E621A, E836A; HEK-293T
  Dmax: 67%
IRE1:VHL
  EC50: 110 ± 30 nM
IRE1:VHL; WT IRE1, HEK293T, estimated
  EC50 of IRE1:VHL interaction (NanoBRET ratio): 110 nM
U2OS cells
  proliferation rate (cell confluency): did not affect the proliferation rate
[1]
  G6374-induced IRE1:VHL interaction and IRE1 degradation with IRE1 point mutants: abolish the G6374-induced interaction between IRE1 and VHL
KMS27 cells
  growth inhibition (cell confluency): concentration-dependent growth inhibition
IRE1; AMO1 and KMS27 cells, G6374 3 µM, 2 hr, Tg 100 nM or Tm 5 µg/ml, 6 hr
  IRE1 depletion under ER stress (thapsigargin or tunicamycin): did not encumber G6374-driven IRE1 depletion
IRE1; AMO1 cells, 1 µM, 0-8 h
  IRE1 depletion over a time course: reaches near maximum levels by 4 hr; also recorded: near complete IRE1 depletion by 4 h
IRE1; [2]
  DC50: 40 nM
  Dmax: 93%
